Publication PMC7547832 (Journal of Fluorine Chemistry, 2020)

Key:
Type in all cases: cell-based
[1] = Toxicity studies, microtetrazolium test; details: dog, MDCK cells (ATCC CCL-34)
[2] = test system: Influenza virus A/Puerto Rico/8/34 (H1N1); details: ratio of CC50 to IC50, MDCK cell line
Coxsackie virus B3 = assay: Cell protection assay, Coxsackie virus B3 in Vero cells; details: for IC50: Enterovirus B, B3, Vero, 72 h; for SI (selectivity index): ratio of CC50 to IC50, Coxsackie virus B3, Vero cell line

| SMILES | CC50 at 48 h [1] | SI (selectivity index) [2] | IC50 (Coxsackie virus B3) | antiviral properties against the Coxsackie virus B3 (in words) (Coxsackie virus B3; Vero cell culture) | SI (selectivity index) (Coxsackie virus B3) |
| --- | --- | --- | --- | --- | --- |
| COC(=O)c1c(-c2ccc(OC)c(OC)c2)oc2c(F)c(F)c(F)c(F)c2c1=O [Compound 4a, Methyl 5,6,7,8-tetrafluoro-2-(3,4-dimethoxyphenyl)-4-oxo-4H-chromene-3-carboxylate] | 109 ± 8 µM | 2 | > 61 µM | – | – |
| COC(=O)c1c(-c2ccc(OC)c(OC)c2)oc2c(F)c(-n3ccnc3)c(F)cc2c1=O [Compound 7а, Methyl 6,8-difluoro-2-(3,4-dimethoxyphenyl)-7-(1H-imidazol-1-yl)-4-oxo-4H-chromene-3-carboxylate] | > 679 µM | – | > 226 µM | – | – |
| COc1ccc(-c2cc(=O)c3c(F)c(F)c(-n4ccnc4)c(F)c3o2)cc1OC [Compound 13, 5,6,8-Trifluoro-2-(3,4-dimethoxyphenyl)-7-(1H-imidazol-1-yl)-4H-chromene-4-one] | > 746 µM | – | 29 ± 4 µM | demonstrated antiviral properties against the Coxsackie virus B3 | 26 |
| NC(=O)c1ncn([C@@H]2O[C@H](CO)[C@@H](O)[C@H]2O)n1 [ribavirin, reference compound] | > 2130 µM | – | 34 ± 4 µM | – | >63 |
| COC(=O)c1c(-c2ccc(OC)cc2)oc2c(F)c(-n3ccnc3)c(F)c(O)c2c1=O [Compound 8b, Methyl 6,8-difluoro-5-hydroxy-7-(1H-imidazol-1-yl)-2-(4-methoxyphenyl)-4-oxo-4H-chromene-3-carboxylate] | 629 ± 41 µM | 16 | – | – | – |
| COC(=O)c1c(-c2ccc(OC)c(OC)c2)oc2c(F)c(F)c(F)cc2c1=O [Compound 5а, Methyl 6,7,8-trifluoro-2-(3,4-dimethoxyphenyl)-4-oxo-4H-chromene-3-carboxylate] | 508 ± 32 µM | 16 | 635 ± 42 µM | – | – |
| COC(=O)c1c(-c2ccc(OC)c(OC)c2)oc2c(F)c(-n3ccnc3)c(F)c(F)c2c1=O [Compound 6a, Methyl 5,6,8-trifluoro-2-(3,4-dimethoxyphenyl)-7-(1H-imidazol-1-yl)-4-oxo-4H-chromene-3-carboxylate] | 61 ± 4 µM | 5 | > 65 µM | – | – |
